# Measurements taken from patent US11224223B2, “Feeding deterrence of pests such as Hemiptera, Lepidoptera and Coleoptera” (BEDOUKIAN RESEARCH, INC., priority 2012, dated 2022).
# Assays:
# Format in all cases: in vivo
# [1] = tested on: Dermestid spp.; test: Dermestid beetle feeding damage on silk fabric; conditions: 3% compound; undyed silk disks; late instar larvae; 1 week
# Description: Dermestid Beetle Feeding Damage on Silk Fabric
# For feeding assays, 3% alcohol solutions of the tested compounds are prepared. Disks (4.0 cm in diameter) of undyed silk fabric are dipped in the test solutions or alcohol alone as a control. After the complete evaporation of the solvent, the disks are offered to 10 late instar larvae. All dishes are placed in an incubator. Four replicates are used for each chemical. After 1 week, the remaining uneaten area of each silk disk is measured using a scanner and software. The selective antifeeding rate (%) formula is [(C−T)/(C+T)]×100, and the non-selective antifeeding rate (%) formula is [(C−T)/C)]×100, where C and T are the areas consumed by the control and treated silk disks, respectively.
# [2] = tested on: Popillia japonica; test: Japanese beetle feeding damage on basil; conditions: 3% compound; basil leaf disks; adult beetle; 24 h
# Description: (§1) Japanese Beetle Feeding Damage on Basil For choice feeding assays, 3% alcohol solutions of the tested compounds are prepared. Disks (4.0 cm in diameter) are cut from basil leaves and are dipped in the test solutions or alcohol alone as a control. After the complete evaporation of the solvent, the disks are offered to 1 adult beetle. All dishes are placed in an incubator. Four replicates are used for each chemical. After 24 h, the remaining uneaten area of each basil leaf disk is measured using a scanner and software. The selective antifeeding rate (%) formula is [(C−T)/(C+T)]×100, and the non-selective antifeeding rate (%) formula is [(C−T)/C)]×100, where C and T are the areas consumed by the control and treated leaf disks, respectively.
# [3] = tested on: Aphis gossypii; test: Melon aphid repellency on leaf choice assays; conditions: 3% compound in a Triton X:Water solution; n=100; control 50/50
# Source text: Melon Aphid Repellency on Leaf Choice Assays Aphis gossypii are maintained on squash plants. Individual aphids (n=100) are given the choice between leaves with and without repellent treatments. A separate group of aphids are given a choice between untreated vs. untreated leaves as a control. The number of aphids choosing each leaf is counted both choice tests. The number of aphids choosing each treatment is compared to the control to determine the repellent effect.
# [4] = tested on: sharpshooters; test: Leafhopper repellency on citrus choice assays; conditions: 3% compound; citrus seedlings; 100 sharpshooters per cage; control 50/50
# Source text: Leafhopper Repellency on Citrus Choice Assays Citrus seedlings are sprayed with either a 3% solution of repellent chemical in a 5%:95% ETOH:Water or only 5%:95% ETOH:Water as a control. Two seedlings are placed in a screen cage, either a treatment vs control tree or a control vs control tree. 100 sharpshooters are released into each cage. The number of sharpshooters choosing each leaf is counted for both choice tests. The number of sharpshooters choosing each treatment is compared to the control to determine if there is a repellent effect.
# [5] = tested on: granary weevils; test: Granary weevil test on treated wheat kernels; conditions: 5% in isopropyl alcohol, 3 week period
# Description: Ten replicates of 30 kernels of wheat were immersed into the test compound and allowed to dry for 24 hours. The grains were then transferred to a test container, and 10 granary weevils were released. Test containers were secured and left for a 3 week period. At the end of this time, the wheat grains were examined for developing larvae and damage by larvae. […] Ten additional replicates treated with isopropyl alcohol were prepared to serve as controls.
# [6] = tested on: Tineola spp.; test: Clothes moth feeding damage on silk fabric, choice test; conditions: 3% compound; silk disks; late instar larvae; 24 hours; control 50/50
# Description: For feeding assays, 3% alcohol solutions of the tested compounds are prepared. Disks (2.0 cm in diameter) of undyed silk fabric are dipped in the test solutions or alcohol alone as a control. After the complete evaporation of the solvent, the disks are presented in a choice test to 10 late instar Tineola spp. larvae. All dishes are placed in an incubator in the dark. Four replicates are used for each chemical. After 24 hours, the number of individuals choosing to feed on each disk are counted.
# [7] = tested on: Plodia interpunctella; test: Feeding repellent assay for Indian meal moth larva on treated rice; conditions: 10% compound in a 5% Ethanol:95% water solution, third instar larvae, 1 week
# Description: (§2) Feeding Repellent Assay for Indian Meal Moth Larva One gram of rice is weighed and treated with 2% by weight of each test chemical or ethanol as a control for each treatment and replicate. The grains are allowed to dry and then weighed again. Treated or control rice grains are placed in a petri dish. Third instar larvae are starved for 8 h and gently introduced into the center of each compartment. 20 larva are screened per treatment, and each experiment is repeated three times. The weight of rice grains is measured again after 1 week. The selective antifeeding rate (%) formula is [(C−T)/(C+T)]×100, and the non-selective antifeeding rate (%) formula is [(C−T)/C)]×100, where C and T are the areas consumed by the control and treated leaf disks, respectively.
# [8] = tested on: Euschistus heros-Neotropical Brown Stink Bugs; test: Stink bug feeding damage on soybean pods; conditions: 3% compound, soybean plants at R6 stage, 48 hours
# Description: To compare the feeding/resting preference of stink bug adults for different plant parts, 10 pots with soybean plants at the R6 (pod-filling) stage of development are used. 5 pots of soybeans are sprayed with 3% of treatment in a 2% Triton X:water solution and 5 pots of soybean are treated with 2% Triton X:water solution as controls. Thirty stink bugs are placed individually in each cage and allowed to feed for 48 hours. Insects are removed and plant parts are collected for visual analysis of damage. Feeding damage on the pods is counted for both treatments. The selective antifeeding rate (%) formula is [(C−T)/(C+T)]×100, and the non-selective antifeeding rate (%) formula is [(C−T)/C)]×100, where C and T are the numbers of feeding damages on the control and treated plant pods, respectively.
# [9] = tested on: psyllids; test: Psyllid repellency on potato choice assays; conditions: 3% compound; potato plants; 100 psyllids per cage; control 50/50
# Source text: Psyllid Repellency on Potato Choice Assays
# Potato plants are sprayed with either a 3% solution of repellent chemical in a 5%:95% ETOH:Water or only 5%:95% ETOH:Water as a control. Two plants are placed in a screen cage, either a treatment vs control tree or a control vs control tree, 100 psyllids are released into each cage. The number of psyllids choosing each leaf is counted for both choice tests. The number of psyllids choosing each treatment is compared to the control to determine if there is a repellent effect.
# [10] = tested on: Leptinotarsa decemlineata-Colorado Potatoe Beetles; test: Choice feeding assay on potato leaf disks; conditions: 3% compound, larvae, 24 h
# Description: as §1, with “For” for “Japanese Beetle Feeding Damage on Basil For”, “potato” for “basil”, “10 larvae. Control and treated disks are placed at alternate corners in Petri dishes (150 by 20 mm) lined with moistened filter paper (choice test).” for “1 adult beetle.”, “replicates and 40 larva” for “replicates”, “chemical. In each replicate, the insects are allowed to feed ad libitum for 24 h at 24 C under a 16:8 (L:D) photoperiod.” for “chemical.”
# [11] = tested on: Sitostroga cerealella; test: Feeding repellent assay for Angoumois larva on treated rice; conditions: 10% compound in a 5% Ethanol:95% water solution, third instar larvae, 1 week
# Description: Feeding Repellent Assay for Angoumois Larva
# as §2, with “One” for “Feeding Repellent Assay for Indian Meal Moth Larva One”
# [12] = tested on: saw tooth grain beetles; test: Repellency of test compounds on grain beetles, treated corn kernels; conditions: 5% in isopropyl alcohol, 3 week period
# Description: Ten replicates of 30 kernels of corn are immersed into the test compound and allowed to dry for 24 hours. The kernels are then transferred to a test container, and 10 saw tooth grain beetles are released. Test containers are secured and left for a 3 week period. At the end of this time, the […] grains are examined for feeding damage. […] Ten additional replicates treated with isopropyl alcohol are prepared to serve as controls.
structure (smiles),measurement,setting,value
CCCCCCCCCC1CCC(=O)O1 (stereo not shown) [Gamma Tridecalactone],% Repellency,[1],40%
same,% Repellency,[2],40%
same,Number of Aphids Choosing each Treatment: Treated,[3],20
same,Number of Aphids Choosing each Treatment: Untreated,[3],80
same,Number of Psyllids Choosing each Treatment: Treated,[4],20
same,Number of Psyllids Choosing each Treatment: Untreated,[4],80
same,Increased Repellency vs. Control Repellency,[5],40%
same,Individuals choosing to feed on each disk: Treated,[6],10
same,Individuals choosing to feed on each disk: Untreated,[6],90
same,% Antifeedent Activity,[7],70%
same,% Antifeedent Activity,[8],80%
same,Number of Psyllids Choosing each Treatment: Treated,[9],20
same,Number of Psyllids Choosing each Treatment: Untreated,[9],80
same,% Repellency,[10],40%
same,% Antifeedent Activity,[11],70%
same,Increased Repellency vs. Control Repellency,[12],40%
